Results taken from PMC12090178, “Exploring the Potential of Homologous Recombination Protein PALB2 in Synthetic Lethal Combinations” (ACS Chemical Biology, 2025).
Where a SMILES comes first, the peptide text is derived from it. The star is where a group is joined. Cbz = O=C(OCc1ccccc1)*

These compounds were tested against T1, PALB2C (Homo sapiens, UniProt Q86YC2) (assay: Displacement polarization assay (competition with FLU-GG-[…])). Conditions: alanine scan of BRCA2 21-35; dark peptide 10 μM, probe FLU-GG-[…] 10 nM; 20 min RT, 25 °C; competitive binding fit; N = 1-4; read-out: KD (alanine scan).
T1 construct: C terminal part of Palb2 (aa 835-1186); His tag (C); 3C protease site; host or cells: Hi5 insect cells (virus produced and amplified in Sf9)
T1 sequence (Q86YC2 835-1186): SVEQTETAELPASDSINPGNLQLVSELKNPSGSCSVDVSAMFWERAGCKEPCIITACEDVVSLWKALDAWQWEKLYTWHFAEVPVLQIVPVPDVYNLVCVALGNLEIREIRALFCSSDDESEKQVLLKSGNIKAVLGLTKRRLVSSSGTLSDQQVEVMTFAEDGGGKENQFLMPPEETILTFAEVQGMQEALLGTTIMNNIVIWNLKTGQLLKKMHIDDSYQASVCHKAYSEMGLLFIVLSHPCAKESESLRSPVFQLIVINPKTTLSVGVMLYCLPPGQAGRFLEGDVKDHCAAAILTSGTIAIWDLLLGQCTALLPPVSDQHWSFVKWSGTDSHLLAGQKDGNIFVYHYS
Method: To the mixture above, the dark peptide was added at a final concentration of 10 μM (1000 eq. excess). After incubation in the dark at RT for 20 min, fluorescence polarization was measured (ex: 485:20, em: 535:25, 25 °C).KD was obtained by fitting the signal to a competitive binding model described previously[52] by using the python lmfit package with the nonlinear least-squares method.
9.3 Displacement polarization assay
The displacement assay was set up similarly to the direct polarization assay. In addition to the
DMSO) was added to a final concentration of 20 μM.
μM and 10 nM for the peptide and the probe, respectively.
The resulting binding curve was fitted using the python lmfit package3 to a linearly transformed competitive KD binding model described previously4 using the non- linear least
𝑚𝑚 = 𝐾𝐾D, Probe + 𝐾𝐾D, Pep + 𝑐𝑐Probe + 𝑐𝑐Pep − 𝑐𝑐Prot
𝑛𝑛 = 𝐾𝐾D, Pep ⋅ (𝑐𝑐Probe − 𝑐𝑐Prot ) + 𝐾𝐾D, Probe ⋅ ?𝑐𝑐Pep − 𝑐𝑐Prot ? + 𝐾𝐾D, Pep ⋅ 𝐾𝐾D, Probe 𝑜𝑜 = −𝐾𝐾D, Pep ⋅ 𝐾𝐾D, Pro be ⋅ 𝑐𝑐Prot
𝜃𝜃 = cos −1 ?−2𝑚𝑚 3 + 9𝑚𝑚𝑛𝑛 − 27𝑜𝑜 ?
𝑟𝑟 = 2 ⋅ ?𝑚𝑚 2 − 3𝑛𝑛 ⋅ cos 𝜃𝜃3 − 𝑚𝑚
𝑓𝑓 = 𝑐𝑐Probe ⋅ 𝑟𝑟3 ⋅ 𝐾𝐾D, Probe + 𝑟𝑟
In the case of H-KAALGPISLNWFEEL-NH2 [Peptide P29], the Kd is reported as 4.6 µM. Work on H-KADLGAISLNWFEEL-NH2 [Peptide P32] yielded a Kd of 3.6 µM. Compound H-KADLGPASLNWFEEL-NH2 [Peptide P33] has a Kd of 5.3 µM. H-KADLGPIALNWFEEL-NH2 [Peptide P34] was tested, and the Kd was 4.9 µM. H-KADLGPISANWFEEL-NH2 [Peptide P35] gave a Kd of 6.7 µM. Compound H-KADLGPISLAWFEEL-NH2 [Peptide P36] has a Kd of 4 µM. For H-KADLGPISLNAFEEL-NH2 [Peptide P25], the Kd was 5.5 µM. For H-KADLGPISLNWAEEL-NH2 [Peptide P26], the Kd was 10.1 µM. H-KADLGPISLNWFAEL-NH2 [Peptide P27] showed a Kd of 5.1 µM. “H-KADLGPISLNWFEAL-NH2 [Peptide P28, H-KADLGPISLNWFEAL-NH2]” was tested, and the Kd was 7 µM.

Same assay, conditions: truncated BRCA2 peptides; dark peptide 10 μM, probe FLU-GG-[…] 10 nM; 20 min RT, 25 °C; competitive binding fit; PALB2C source Hi5 (Figure 2B); N = 1-5; read-out: KD (other peptides)
H-DLGPISLNWFEEL-NH2 [Peptide P8] was tested, and the Kd was 7.9 µM. Compound H-GPISLNWFE-NH2 [Peptide P12] has a Kd of 17.9 µM. With H-GPISLNWFEEL-NH2 [Peptide P7] the Kd was 82.2 µM. With H-KADLGPISLNWFE-NH2 [Peptide P14] the Kd was 25.2 µM. Compound H-KADLGPISLNWFEEL-NH2 [Peptide P9] has a Kd of 5 µM.

The compounds below were run on PALB2-IKZF3d (assay: IMiD-induced degradation of PALB2-IKZF3d (Western blot)). Conditions: 1 μM inhibitor 6 h, then 10 μM pomalidomide 18 h.
Assay type: cell-based
Method: 5.1 Degradation of PALB2 and UPP rescue assays
To show PALB2 deegradation, cells were treated with pomalidomide at the indicated concentrations for 24 h. The cells were subsequently lysed and prepared for gel electrophoresis and western blotting.
To show UPP rescue, MG132 and MLN4924 were used to inhibit the ubiquitination-proteasome degradation pathway. The cells were first treated with 1 μM MG132 or 1 μM MLN4924. After 6 h, pomalidomide was added to a final concentration of 10 μM. After 18 h, the cells were collected and lysed.
To show PALB2 recovery, the cells were first treated with 10 μM pomalidomide or 10 μM iberdomide for 24 h. After that, the culture medium was removed, the cells were washed three times with fresh culture medium and then cultured with culture medium without IMiDs.
The cells were then collected an d l yse d . […]
Figure S7. A). Degradation of endogenous PALB2.
B). PALB2 de gra dation rescue expe ri ment. The cells in the degradation rescue group w ere first t reated with 1 μ M MG132 and 1 μ M M LN49 24 for 6 hou rs and then t reated with 10 μ M pomalidomide for 1 8 hours. Cell samples were collected for WB analysis. The asterisk represents a nonspecific band of PALB 2 with t his antibody. […]
`CC(C)C[C@@H](C=O)NC(=O)[C@H](CC(C)C)NC(=O)[C@H](CC(C)C)NC(=O)OCc1ccccc1` [MG132] (Cbz-Leu-Leu-Leu-aldehyde) was tested, and the “rescue of pomalidomide-induced PALB2-IKZF3d degradation” value was “prevented the pomalidomide-induced degradation of PALB2-IKZF 3d”. For `NS(=O)(=O)OC[C@@H]1C[C@@H](n2ccc3c(N[C@H]4CCc5ccccc54)ncnc32)C[C@@H]1O` [MLN4924], the “rescue of pomalidomide-induced PALB2-IKZF3d degradation” value was “prevented the pomalidomide-induced degradation of PALB2-IKZF 3d”.

Same assay, conditions: 10 μM IMiD for 24 h, then medium removed and cells washed, knock-in cells
`O=C1CC[C@H](N2Cc3c(OCc4ccc(CN5CCOCC5)cc4)cccc3C2=O)C(=O)N1` [Iber, iberdomide] was tested, and the “recovery of PALB2 levels after wash out” value was “PALB2 levels recover after 24 h”.

Same assay, conditions: homozygous IKZF3d knock-in HEK293 cells, 24 h treatment
In the case of `O=C1CC[C@H](N2Cc3c(OCc4ccc(CN5CCOCC5)cc4)cccc3C2=O)C(=O)N1` [Iber, iberdomide], the “degradation of PALB2 in IKZF3d knock-in cells” value is reported as “degradation could also be induced”.
